One data set deals with fundus of the stomach. The data set can be described thus: Gastric tone measured by an electronic barostat in conscious dogs. Format: in vivo. The settings on record: conscious female beagle dogs; 0.63 mg/kg s.c.; 1 hour after administration of the test compound. The protocol:
C.1. Gastric Tone Measured by an Electronic Barostat in Conscious Dogs
Gastric tone cannot be measured by manometric methods. Therefore an electronic barostat was used. This allows the study of the physiological pattern and regulation of gastric tone in conscious dogs and the influence of test-compounds on this tone.
The barostat consists of an air injection system which is connected by a double-lumen 14-French polyvinyl tube to an ultrathin flaccid polyethylene bag (maximal volume: ±700 ml). Variations in gastric tone were measured by recording changes in the volume of air within an intragastric bag, maintained at a constant pressure, or at varying pressure levels. The barostat maintains a constant pressure (preselected) within a flaccid air-filled bag introduced into the stomach, changing the volume of air within the bag by an electronic feedback system.
Thus, the barostat measures gastric motor activity (contraction or relaxation) as changes in intragastric volume (decrease or increase resp.) at a constant intragastric pressure. The barostat consists of a strain gauge linked by an electronic relay to an air injection-aspiration system. Both the strain gauge and the injection system are connected by means of double-lumen polyvinyl tube to an ultrathin polyethylene bag. A dial in the barostat allows selection of the pressure level to be maintained within the intragastric bag.
Female beagle dogs, weighing 7-17 kg, were trained to stand quietly in Pavlov frames. They were implanted with a gastric cannula under general anaesthesia and aseptic precautions. After a median laparotomy, an incision was made through the gastric wall in longitudinal direction between the greater and the lesser curve, 2 cm above the nerves of Latarjet. The cannula was secured to the gastric wall by means of a double purse string suture and brought out via a stub wound at the left quadrant of the hypochondrium. Dogs were allowed a recovery period of two weeks.
At the beginning of the experiment, the cannula was opened in order to remove any gastric juice or food remnants. If necessary, the stomach was cleansed with 40 to 50 ml lukewarm water. The ultrathin bag of the barostat was positioned into the fundus of the stomach through the gastric cannula. In order to ensure easy unfolding of the intragastric bag during the experiment, a volume of 150-200 ml was injected into the bag by raising the pressure to maximally 14 mm Hg (about 1.87 kPa) very briefly. This procedure was repeated twice. A stabilisation period of 1 hour was allowed. […]

A further data set concerns basilar arteries. The data set can be described thus: Vasoconstrictive activity on basilar artery. Also on record: species or system pigs. The note with it: Sus scrofa; pig basilar artery segments, organ bath; response relative to serotonin 3×10^−7 M; estimated from three preparations; read-out: ED50-value (concentration causing 50% of the constrictive response obtained with serotonin). The protocol: C.2 Vasoconstrictive Activity on Basilar Artery
Segments of basilar arteries taken from pigs (anaesthetised with sodium pentobarbital) were mounted for recording of isometric tension in organ baths. The preparations were bathed in Krebs-Henseleit solution. The solution was kept at 37° C. and gassed with a mixture of 95% O2-5% CO2. The preparations were stretched until a stable basal tensions of 2 grams was obtained.
The preparations were made to constrict with serotonin (3×10^−7 M). The response to the addition of serotonin was measured and subsequently the serotonin was washed away. This procedure was repeated until stable responses were obtained. Subsequently the test compound was administered to the organ bath and the constriction of the preparation was measured. This constrictive response was expressed as a percentage of the response to serotonin as measured previously.

A word on the melting point: it is the temperature of the solid-liquid transition.

Turning to `O=C(O)C(=O)O.O=C1NCCCN1CCCNCC1CCc2ccccc2O1` (racemic) [Compound 1, (±)-1-[3-[[(3,4-dihydro-2H-1-benzopyran-2-yl)methyl]amino]-propyl]-tetrahydro-2(1H)-pyrimidinone ethanedioate(1:1)], the melting point was found to be 226.3 °C. In addition, the “% effect (percentual effect on relaxation of the fundus)” value in the data set with fundus of the stomach was found to be 23.0%. Besides, the EC50 with basilar arteries is above 1 µM.

Take `O=C1NCCCN1CCCN(Cc1ccccc1)CC1CCc2ccccc2O1` (racemic) [Compound 13, (±)-1-[3-[[(3,4-dihydro-2H-1-benzopyran-2-yl)methyl](phenylmethyl)amino]propyl]-tetrahydro-2(1H)-pyrimidinone]: the melting point came to 94.7 °C. Besides, the “% effect (percentual effect on relaxation of the fundus)” value in the data set with fundus of the stomach is recorded as 0.4%. For the same compound, the EC50 in the data set with basilar arteries is above 1 µM.

Compound `O=C(O)C(=O)O.S=C1NCCCN1CCCNCC1CCc2ccccc2O1` (racemic) [Compound 14, (±)-1-[3-[[(3,4-dihydro-2H-1-benzopyran-2-yl)-methyl]amino]propyl]tetrahydro-2(1H)-pyrimidinethione ethanedioate(1:1)] came in with a melting point of 217.6 °C. The EC50 in the data set on basilar arteries was above 1 µM.

Consider `N#CN=C1NCCCN1CCCNCC1CCc2ccccc2O1` (racemic) [Compound 21, (±)-[1-[3-[[(3,4-dihydro-2H-1-benzopyran-2-yl)-methyl]-amino]propyl]hexahydro-2-pyrimidinylidene]cyanamide ethanedioate (1:1)], for which the melting point came out at 177.5 °C. In addition, in the data set on basilar arteries, the EC50 was 0.59 µM.

In the case of `NC(=O)Nc1nccn1C1CCN(CC2CCc3ccccc3O2)CC1` (racemic) [Compound 66, (±)-[1-[1-[(3,4-dihydro-2H-1-benzopyran-2-yl)methyl]-4-piperidinyl]-1H-imidazol-2-yl]urea], in the data set on basilar arteries, the EC50 was above 1 µM.

For `O=C(O)C(=O)O.O=C1NCCCN1CCCNC[C@H]1CCc2ccccc2O1` [Compound 3, (R)-1-[3-[[(3,4-dihydro-2H-1-benzopyran-2-yl)methyl]amino]propyl]-tetrahydro-2(1H)-pyrimidinone ethanedioate (1:1)], in the data set with fundus of the stomach, the “% effect (percentual effect on relaxation of the fundus)” value was found to be 36.2%. The EC50 in the data set with basilar arteries is above 1 µM.

As to `N#CNc1nccn1C1CCN(CC2CCc3ccccc3O2)CC1` (stereo not drawn) [Compound 59, [1-[1-[(3,4-dihydro-2H-1-benzopyran-2-yl)methyl]-4-piperidinyl]1H-imidazol-2-yl]cyanamide], the EC50 in the data set with basilar arteries is above 1 µM.

For the compound “(RR,SS)-1-[1-[2-(3,4-dihydro-2H-1-benzopyran-2-yl)-2-hydroxyethyl]-4-piperidinyl]-2-imidazolidinone [Compound 20]”, in the data set with fundus of the stomach, the “% effect (percentual effect on relaxation of the fundus)” value turned out to be 9.5%.

Values taken from patent US6747045B2, “(Benzodioxan, benzofuran or benzopyran) derivatives having fundic relaxation properties” (Janssen Pharmaceutica N.V., priority 1997, dated 2004).
